Experimental data taken from patent US11492361B2, “Compounds useful in HIV therapy” (GlaxoSmithKline Intellectual Property Development Limited, priority 2018, dated 2022).
Counter-ions that a name gives are not always drawn.

Tested on: Jurkat HIV-luciferase clones
Assay: Jurkat latency reversal assay
Type: cell-based
Settings: Homo sapiens, Jurkat, 48 h
Experimental: Jurkat HIV-luciferase clones were maintained in RPMI medium 1640 (Gibco by Life Technologies) containing 10% (vol/vol) fetal bovine serum (SAFC/Sigma-Aldrich) and 25 units/mL penicillin, 25 units/mL streptomycin (Gibco by Life Technologies), and were split 1:4 every 3 to 4 days to maintain a cell density of ˜0.3 to 1 million cells/mL. The Jurkat clones were maintained with the addition of 500 nM EFV in the medium. Three Jurkat cell clones (C16, I15, and N6), each harboring one or two integrated HIV proviruses expressing the luciferase reporter gene, were added at equal amounts for a total of 5,000 cells per well to 384-well plates containing compound titrations. Dose-response testing was performed on compounds dissolved in dimethyl sulfoxide (DMSO, Fisher Scientific, Merelbeke, Belgium) dispensed in duplicate serial 3-fold, 14-point titrations using a D300e Digital Droplet Dispenser (Hewlett-Packard) to give final assay concentrations of 10 μM to 2.1 pM in 50 μL of medium at 0.5% DMSO (vol/vol) final concentration. Cells and compound were incubated at 37° C. for 48 hours, unless otherwise indicated, followed by the addition of 20 μL of Steady-Glo® Luciferase (Promega). Luminescence resulting from the induction of the virally expressed luciferase was measured using an EnVision 2102 Multilabel Plate Reader (Perkin Elmer). Dose-response relationships were analyzed with GraphPad PRISM 6 using a four-parameter logistic regression model to calculate the concentration of compound that gives half-maximal response (EC50) and the maximal percent activation compared to the vehicle control.

Compound: CN[C@@H](C)C(=S)N[C@H]1CCS[C@H]2CC(C)(C)[C@@H](C(=O)N[C@H]3c4ccccc4C[C@H]3OCCOCCO[C@@H]3Cc4ccccc4[C@@H]3NC(=O)[C@H]3N4C(=O)[C@@H](NC(=S)[C@H](C)NC)CCS[C@H]4CC3(C)C)N2C1=O [compound 19, (4S,4′S,7S,7′S,9aS,9a′S)-N,N′-((1S,1′S,2R,2′R)-((oxybis(ethane-2,1-diyl))bis(oxy))bis(2,3-dihydro-1H-indene-2,1-diyl))bis(8,8-dimethyl-4-((S)-2-(methylamino)propanethioamido)-5-oxooctahydropyrrolo[2,1-b][1,3]thiazepine-7-carboxamide) dihydrochloride]
- EC50: 9.4 nM

Compound: CN[C@@H](C)C(=O)N[C@H]1CCS[C@H]2CC(C)(C)[C@@H](C(=O)N[C@H](COCCOCCOC[C@@H](NC(=O)[C@H]3N4C(=O)[C@@H](NC(=O)[C@H](C)NC)CCS[C@H]4CC3(C)C)c3ccccc3)c3ccccc3)N2C1=O [compound 38, (4S,4′S,7S,7′S,9aS,9a′S)-N,N′-((1S,1′S)-((oxybis(ethane-2,1-diyl))bis(oxy))bis(1-phenylethane-2,1-diyl))bis(8,8-dimethyl-4-((S)-2-(methylamino)propanamido)-5-oxooctahydropyrrolo[2,1-b][1,3]thiazepine-7-carboxamide)]
- EC50: 50.7 nM

Compound: CN[C@@H](C)C(=S)N[C@H]1CCS[C@H]2CC(C)(C)[C@@H](C(=O)N[C@H]3c4ccccc4C[C@H]3OCCCCCCO[C@@H]3Cc4ccccc4[C@@H]3NC(=O)[C@H]3N4C(=O)[C@@H](NC(=S)[C@H](C)NC)CCS[C@H]4CC3(C)C)N2C1=O [compound 21, (4S,4′S,7S,7′S,9aS,9a′S)-N,N′-((1S,1′S,2R,2′R)-(hexane-1,6-diylbis(oxy))bis(2,3-dihydro-1H-indene-2,1-diyl))bis(8,8-dimethyl-4-((S)-2-(methylamino)propanethioamido)-5-oxooctahydropyrrolo[2,1-b][1,3]thiazepine-7-carboxamide)]
- EC50: 13 nM

Compound: CN[C@@H](C)C(=O)N[C@H]1CCS[C@H]2CC(C)(C)[C@@H](C(=O)N[C@H](C(=O)NCC#CC#CCNC(=O)[C@@H](NC(=O)[C@H]3N4C(=O)[C@@H](NC(=S)[C@H](C)NC)CCS[C@H]4CC3(C)C)c3ccccc3)c3ccccc3)N2C1=O [compound 31, (4S,7S,9aS)-N-((S)-2-((6-((S)-2-((4S,7S,9aS)-8,8-dimethyl-4-((S)-2-(methylamino)propanamido)-5-oxooctahydropyrrolo[2,1-b][1,3]thiazepine-7-carboxamido)-2-phenylacetamido)hexa-2,4-diyn-1-yl)amino)-2-oxo-1-phenylethyl)-8,8-dimethyl-4-((S)-2-(methylamino)propanethioamido)-5-oxooctahydropyrrolo[2,1-b][1,3]thiazepine-7-carboxamide dihydrochloride]
- EC50: 25.8 nM

Compound: CN[C@@H](C)C(=O)N[C@H]1CCS[C@H]2CC(C)(C)[C@@H](C(=O)N[C@H]3c4ccccc4C[C@H]3C(=O)N3CCN(C(=O)[C@@H]4Cc5ccccc5[C@@H]4NC(=O)[C@H]4N5C(=O)[C@@H](NC(=O)[C@H](C)NC)CCS[C@H]5CC4(C)C)CC3)N2C1=O [compound 46, (4S,7S,9aS)-N-[(1R,2R)-2-{4-[(1R,2R)-1-[(4S,7S,9aS)-8,8-dimethyl-4-[(2S)-2-(methylamino)propanamido]-5-oxo-octahydropyrrolo[2,1-b][1,3]thiazepine-7-amido]-2,3-dihydro-1H-indene-2-carbonyl]piperazine-1-carbonyl}-2,3-dihydro-1H-inden-1-yl]-8,8-dimethyl-4-[(2S)-2-(methylamino)propanamido]-5-oxo-octahydropyrrolo[2,1-b][1,3]thiazepine-7-carboxamide]
- EC50: 127 nM

Compound: CN[C@@H](C)C(=O)NC1CCS[C@H]2CC(C)(C)[C@@H](C(=O)N[C@H]3c4ccccc4CC[C@H]3C(=O)NCc3ccc(CNC(=O)[C@@H]4CCc5ccccc5C4NC(=O)[C@H]4N5C(=O)[C@@H](NC(=O)[C@H](C)NC)CCS[C@H]5CC4(C)C)cc3)N2C1=O (stereo in doubt) [compound 9, (4S,4′S,7S,7′S,9aS,9a′S)-N,N′-((1R,1′R,2R,2′R)-(((1,4-phenylenebis(methylene))bis(azanediyl))bis(carbonyl))bis(1,2,3,4-tetrahydronaphthalene-2,1-diyl))bis(8,8-dimethyl-4-((S)-2-(methylamino)propanamido)-5-oxooctahydropyrrolo[2,1-b][1,3]thiazepine-7-carboxamide) dihydrochloride]
- EC50: 90.3 nM

Compound: CN[C@@H](C)C(=S)N[C@H]1CCS[C@H]2CC(C)(C)[C@@H](C(=O)N[C@H](COCCCn3cc(COC[C@@H](NC(=O)[C@H]4N5C(=O)[C@@H](NC(=S)[C@H](C)NC)CCS[C@H]5CC4(C)C)c4ccccc4)nn3)c3ccccc3)N2C1=O [compound 53, (4S,7S,9aS)-N-[(1S)-2-[3-(4-{[(2S)-2-{[(4S,7S,9aS)-8,8-dimethyl-4-[(2S)-2-(methylamino)propanethioamido]-5-oxo-octahydropyrrolo[2,1-b][1,3]thiazepin-7-yl]formamido}-2-phenylethoxy]methyl}-1H-1,2,3-triazol-1-yl)propoxy]-1-phenylethyl]-8,8-dimethyl-4-[(2S)-2-(methylamino)propanethioamido]-5-oxo-octahydropyrrolo[2,1-b][1,3]thiazepine-7-carboxamide]
- EC50: 178 nM

Compound: CN[C@@H](C)C(=O)N[C@H]1CCS[C@H]2CC(C)(C)[C@@H](C(=O)N[C@H](COCc3ccc4cc(COC[C@@H](NC(=O)[C@H]5N6C(=O)[C@@H](NC(=O)[C@H](C)NC)CCS[C@H]6CC5(C)C)c5ccccc5)ccc4c3)c3ccccc3)N2C1=O [compound 62, (4S,4′S,7S,7′S,9aS,9a′S)-N,N′-((1S,1′S)-((naphthalene-2,6-diylbis(methylene))bis(oxy))bis(1-phenylethane-2,1-diyl))bis(8,8-dimethyl-4-((S)-2-(methylamino)propanamido)-5-oxooctahydropyrrolo[2,1-b][1,3]thiazepine-7-carboxamide)]
- EC50: 4.2 nM

Compound: CN[C@@H](C)C(=O)N[C@H]1CCS[C@H]2CC(C)(C)[C@@H](C(=O)N[C@H](COCCCCCCCCCCCCOC[C@@H](NC(=O)[C@H]3N4C(=O)[C@@H](NC(=O)[C@H](C)NC)CCS[C@H]4CC3(C)C)c3ccccc3)c3ccccc3)N2C1=O [compound 61, (4S,4′S,7S,7′S,9aS,9a′S)-N,N′-((1S,1′S)-(dodecane-1,12-diylbis(oxy))bis(1-phenylethane-2,1-diyl))bis(8,8-dimethyl-4-((S)-2-(methylamino)propanamido)-5-oxooctahydropyrrolo[2,1-b][1,3]thiazepine-7-carboxamide)]
- EC50: 11.8 nM

Compound: CN[C@@H](C)C(=S)NC1CCS[C@H]2CC(C)(C)[C@@H](C(=O)N[C@H]3c4ccccc4CC[C@H]3C(=O)NCc3ccc(CNC(=O)[C@@H]4CCc5ccccc5C4NC(=O)[C@H]4N5C(=O)[C@@H](NC(=S)[C@H](C)NC)CCS[C@H]5CC4(C)C)cc3)N2C1=O (stereo in doubt) [compound 10, (4S,4′S,7S,7′S,9aS,9a′S)-N,N′-((1R,1′R,2R,2′R)-(((1,4-phenylenebis(methylene))bis(azanediyl))bis(carbonyl))bis(1,2,3,4-tetrahydronaphthalene-2,1-diyl))bis(8,8-dimethyl-4-((S)-2-(methylamino)propanethioamido)-5-oxooctahydropyrrolo[2,1-b][1,3]thiazepine-7-carboxamide)]
- EC50: 43.4 nM

Compound: CN[C@@H](C)C(=O)N[C@H]1CCS[C@H]2CC(C)(C)[C@@H](C(=O)Nc3ccc(CCc4ccc(NC(=O)[C@H]5N6C(=O)[C@@H](NC(=O)[C@H](C)NC)CCS[C@H]6CC5(C)C)cc4)cc3)N2C1=O [compound 5, (4S,4′S,7S,7′S,9aS,9a′S)-N,N′-(ethane-1,2-diylbis(4,1-phenylene))bis(8,8-dimethyl-4-((S)-2-(methylamino)propanamido)-5-oxooctahydropyrrolo[2,1-b][1,3]thiazepine-7-carboxamide) ditrifluoroacetate]
- EC50: 53.6 nM

Compound: CN[C@@H](C)C(=S)N[C@H]1CCS[C@H]2CC(C)(C)[C@@H](C(=O)N[C@H]3c4ccccc4C[C@H]3C(=O)NCc3ccc(CNC(=O)[C@@H]4Cc5ccccc5[C@@H]4NC(=O)[C@H]4N5C(=O)[C@@H](NC(=S)[C@H](C)NC)CCS[C@H]5CC4(C)C)cc3)N2C1=O [compound 44, (4S,7S,9aS)-N-[(1R,2R)-2-({[4-({[(1R,2R)-1-[(4S,7S,9aS)-8,8-dimethyl-4-[(2S)-2-(methylamino)propanethioamido]-5-oxo-octahydropyrrolo[2,1-b][1,3]thiazepine-7-amido]-2,3-dihydro-1H-inden-2-yl]formamido}methyl)phenyl]methyl}carbamoyl)-2,3-dihydro-1H-inden-1-yl]-8,8-dimethyl-4-[(2S)-2-(methylamino)propanethioamido]-5-oxo-octahydropyrrolo[2,1-b][1,3]thiazepine-7-carboxamide]
- EC50: 20.4 nM
